These results are taken from PMC5247654, “Structural Mechanism Underpinning Cross-reactivity of a CD8^+ T-cell Clone That Recognizes a Peptide Derived from Human Telomerase Reverse Transcriptase” (The Journal of Biological Chemistry, 2016).

The target in series [1] is altered peptide ligand of human telomerase reverse transcriptase 540-548 peptide on HLA-A*02:01 (human). Briefly: SPR, equilibrium binding; data from (17); soluble, other.
In series [2] the target is altered peptide ligand of human telomerase reverse transcriptase 540-548 (A2-ILA8T) peptide on HLA-A*02:01 (human). Briefly: SPR, equilibrium binding; data from (39); soluble, other.
For series [3], the target named is altered peptide ligand of human telomerase reverse transcriptase 540-548 peptide on HLA-A*02:01 (human). Kind of series: SPR, equilibrium binding; data from (17); soluble, other. This is another data set of the same source. (SPR reads the build-up and loss of mass on a sensor chip optically.)
The target of series [4] is human telomerase reverse transcriptase peptide on HLA-A*02:01 (human). Kind of series: van 't Hoff analysis of SPR affinities at 5-37 °C; soluble, other.
Series [5] addresses altered peptide ligand of human telomerase reverse transcriptase 540-548 peptide on HLA-A*02:01 (human). Briefly: SPR, equilibrium binding; data from (16); soluble, other.
Series [6] deals with altered peptide ligand of human telomerase reverse transcriptase 540-548 (A2-ILA3G8R) peptide on HLA-A*02:01 (human). Kind of series: SPR, equilibrium binding at 25 °C, new data of this article; soluble, other.
The target in series [7] is altered peptide ligand of human telomerase reverse transcriptase 540-548 peptide on HLA-A*02:01 (human). Kind of series: SPR, equilibrium binding; kinetics n/m (too fast to measure); data from (39); soluble, other.
The target is the same in series [8]. The series is described as above. This is another data set of the same source.
The target in series [9] is altered peptide ligand of human telomerase reverse transcriptase 540-548 (A2-ILA8E) peptide on HLA-A*02:01 (human). Kind of series: SPR, equilibrium binding; kinetics n/m; data from (39); extremely weak against the index A2-ILA ([…] μM); soluble, other.
Series [10] deals with altered peptide ligand of human telomerase reverse transcriptase 540-548 (A2-ILA8R) peptide on HLA-A*02:01 (human). Briefly: SPR, equilibrium binding at 25 °C, new data of this article; kinetics n/m (too fast to measure); much weaker than the index A2-ILA ([…] μM); soluble, other.
Series [11] can be described thus: pMHC thermal stability by circular dichroism. Format: physicochemical. The following applies: CD thermal denaturation at 218 nm, PBS, ∼3 μM, 0.1-cm cell, two-state trimer-to-monomer fit. The method, then: Thermal stability of the HLA-A*0201-peptide complexes was assessed by circular dichroism spectroscopy, monitoring the change in ellipticities at 218 nm upon heating as described ([31]). Briefly, samples were prepared in PBS at a concentration of ∼3 μM and measured in 0.1-cm quartz cells. Melting curves were analyzed assuming a two-state trimer-to-monomer transition from the native to unfolded conformation and fitted as described ([43]). As all protein complexes aggregated to various degrees upon unfolding, the ellipticity of the unfolded state was set as a constant of −1.35 M^−1 cm^−1 ([44]).

Series [12] has as its target ILA1 TCR. The following applies: SPR, cited from earlier work; for Kd: equilibrium binding.
Series [13] has as its target ILA1 TCR. Kind of series: Surface plasmon resonance binding of ILA1 TCR to HLA-A*0201-ILA peptide variants. The following applies: 25 °C; for Kd: equilibrium binding, SPR, serial dilutions in duplicate, three independent experiments. More on the design: species or system human. The method, then:
Binding analysis was performed in duplicate using a BIAcoreT200^TM equipped with a CM5 sensor chip as described previously ([45]). Approximately 200–500 response units of HLA-A*0201-[…] or HLA-A*0201-[…] peptide complex was attached to the CM5 sensor chip at a slow flow rate of 10 μl/min to ensure uniform distribution on the chip surface. […] For equilibrium analysis, 10 serial dilutions were prepared in duplicate for each sample and injected over the relevant sensor chips at 25 °C. TCR was injected over the chip surface using kinetic injections at a flow rate of 45 μl/min using HLA-A*0201-[…] as a negative control surface on flow cell 1. Results were analyzed using BIAevaluation^TM 3.1, Excel, and Origin 6.0 software. The equilibrium dissociation constant (KD) values were calculated assuming a 1:1 interaction by plotting specific equilibrium binding responses against protein concentrations followed by non-linear least square fitting of the Langmuir binding equation. For kinetics analysis, the kon and koff values were calculated assuming 1:1 Langmuir binding, and the data were analyzed using a global fit algorithm (BIAevaluation 3.1).

Setting [14] is: SPR BIAcore T200, ILA1 TCR injected over immobilised pMHC, 1:1 Langmuir global fit.

Read-outs that look alike come from different tables or passages of the source. Some results are limits rather than exact numbers.

The term Kd denotes the free concentration of one partner at which half of the binding sites on the other are occupied at equilibrium, for simple one-to-one binding. With ILA1 TCR, the Kd amounted to 2.5 µM in [1]; 28 µM in series [2]; 242 µM in series [3]; 117 µM in series [5]; 1 µM in series [6]; 22.6 µM in [7]. Moreover, the Kd was 82 µM in [8], over 500 µM in series [9] and 151 µM in [10]. In series [4], this substance registered a TΔS of 5.86 kcal/mol.
As to ILAKFLHEL, the “apparent Tm (melting temperature)” value in series [11] turned out to be 58.8 °C. The Kd in series [12] is over 500 µM.
In [13], ILAKFLHRL showed a Kd of 151 ± 8 µM. The “apparent Tm (melting temperature)” value in [11] is 60.9 °C.
A word on the koff: it is the first-order rate constant of dissociation. The term kon denotes a measure of how fast the partners come together. Turning to ILAKFLHTL, the “apparent Tm (melting temperature)” value in series [11] is 58.7 °C. In series [12], the koff was 0.08 s⁻¹, the kon was 2200 M⁻¹ s⁻¹ and the Kd was 28 ± 5 µM.
As for ILAKFLHWL, in series [11], the “apparent Tm (melting temperature)” value was 54.5 °C.
With ILAKFLHYL, the Kd in [12] was 22.6 ± 2.1 µM.
Turning to ILAKFLYWL, the Kd in series [12] is 82 ± 8 µM.
Consider ILAKYLHWL, for which, in series [12], the koff is 0.32 s⁻¹, the kon is 1300 M⁻¹ s⁻¹ and the Kd was 242 ± 20 µM.
ILALFLHWL: in series [12], the off-rate (koff) is 0.2 s⁻¹, the kon was 1700 M⁻¹ s⁻¹ and the Kd is 117 ± 6 µM.
In series [13] (setting [14]), ILGKFLHRL gave a koff of 0.16 s⁻¹ and a kon of 30000 M⁻¹ s⁻¹. This substance showed an equilibrium dissociation constant (Kd) in series [13] of 1 ± 0.1 µM. Further, the “apparent Tm (melting temperature)” value in series [11] was 55.9 °C.
For the substance ILGKFLHTL, the “apparent Tm (melting temperature)” value in series [11] was found to be 55.6 °C. In [12], the koff was 0.05 s⁻¹, the kon is 19500 M⁻¹ s⁻¹ and the Kd is 2.5 ± 0.5 µM.
As to ILGKFLHWL, the “apparent Tm (melting temperature)” value in series [11] is 49.8 °C. For the same substance, in series [12], the koff is 0.05 s⁻¹, the kon is 16000 M⁻¹ s⁻¹ and the Kd is 3.7 ± 0.2 µM.
